In paper PMC12030568, “Binding Affinity of Synthetic Cannabinoids to Human Serum Albumin: Site Characterization and Interaction Insights” (Pharmaceuticals, 2025):
“Also recorded” adds a separate entry of the source.

Columns and labels:
HSA site II = target: T1, HSA site II (Homo sapiens, UniProt P02768); assay: Zonal displacement chromatography on HSA column with (S)-ibuprofen and L-tryptophan (site II probes); format: binding; details: 13% ACN; for Interaction with (S)-ibuprofen on HSA: competitor (S)-ibuprofen 5-20 µM in mobile phase, negative slope of 1/k vs concentration; for Binding profile at HSA Site II: competitor L-tryptophan 5-20 µM in mobile phase, plot of 1/k vs competitor concentration
T1 construct: catalogue number not given
T1 sequence (P02768 25-609): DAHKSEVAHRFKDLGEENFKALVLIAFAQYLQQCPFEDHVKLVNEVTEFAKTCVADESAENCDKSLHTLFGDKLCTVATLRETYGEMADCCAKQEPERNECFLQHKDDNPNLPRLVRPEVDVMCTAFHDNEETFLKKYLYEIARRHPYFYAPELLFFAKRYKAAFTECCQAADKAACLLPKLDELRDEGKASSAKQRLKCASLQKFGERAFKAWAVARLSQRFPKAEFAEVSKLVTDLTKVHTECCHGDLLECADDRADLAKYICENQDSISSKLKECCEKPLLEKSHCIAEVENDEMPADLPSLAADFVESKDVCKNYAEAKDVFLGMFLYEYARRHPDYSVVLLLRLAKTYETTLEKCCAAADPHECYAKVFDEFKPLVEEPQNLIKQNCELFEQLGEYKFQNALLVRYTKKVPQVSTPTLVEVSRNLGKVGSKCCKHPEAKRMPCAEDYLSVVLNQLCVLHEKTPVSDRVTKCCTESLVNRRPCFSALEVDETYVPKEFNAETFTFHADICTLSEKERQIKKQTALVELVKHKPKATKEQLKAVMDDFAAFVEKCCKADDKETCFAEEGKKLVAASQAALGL
Method: (§1) To gain deeper insights into HSA binding, displacement studies were conducted to further investigate the binding sites of the synthetic cannabinoids on this protein. […] These competitors are commonly used in displacement studies to elucidate binding interactions at specific HSA sites.
(§2) Various concentrations of the competitors were added to the mobile phase, based on previous studies.
(§3) The chromatographic data are plotted as 1/k versus the competitor concentration.
(§4) The analyses were performed in reversed-phase mode using as mobile phases mixtures of 67 mM potassium phosphate buffer solution (pH 7.0) with different proportions of ACN. […] All chromatographic analyses were performed at 25 ± 2 °C, under isocratic mode, with UV detection at 220, 254, and 300 nm. All mobile phases were prepared in a volume/volume ratio (v/v), filtered through polyamide membrane filters of 0.2 µm pore size from Whatman® GmbH (Dassel, Germany), and degassed in an ultrasonic bath (Soltec® Sonica® Ultrasonic cleaner) for at least 15 min before use.
(§5) Stock solutions of all synthetic cannabinoids were prepared in EtOH at the concentration of 0.2 mg/mL and further diluted with the mobile phase, the potassium phosphate buffer (67 mM, pH 7.0), to a final concentration of 50 μg/mL. All working solutions were filtered through a membrane of 0.45 µm pore size and vortexed for at least 30 s before injection. […] All solutions were stored at 4 °C. […] These concentrations were selected based on previous displacement studies. An aqueous buffer of a 67 mM solution of potassium phosphate was prepared by adjusting the pH to 7.0 with a solution of saturated NaOH. The aqueous buffer pH was controlled with a Crison® BasiC 20 pH meter.
(§6) Equation (5) can be used to describe the impact of the competitor (I) on the retention time of each analyte (A) [32, 58](5) 1/k=VMKI[I]/KAmL+VM/KAmL where KI is the association equilibrium constant of I at the binding site of competition with A, [I] is the concentration of the competitor in the mobile phase, and KA is the association equilibrium constant of A at the binding site of competition with I.
(§7) If a direct competition between the analyte and the competing agent occurs, a straight line with a positive slope is observed in the plot of 1/k versus [I]; if allosteric competition between the analyte and the competing agent occurs, a straight line with a negative slope is observed in the plot of 1/k versus [I]; and if random variations are observed, no competition between the analyte and the competing agent occurs.

HSA site I = target: T2, HSA site I (Homo sapiens, UniProt P02768); assay: Zonal displacement chromatography on HSA column with warfarin (site I probe); format: binding; details: competitor warfarin 5-20 µM in mobile phase; 13% ACN; plot of 1/k vs competitor concentration
T2 construct: catalogue number not given
T2 sequence (P02768 25-609): as above
Method: as §1, §2, §3, §4, §5, §6, §7

[1] = target: human serum albumin (HSA) (Homo sapiens, UniProt P02768); assay: HPAC zonal elution on CHIRALPAK HSA column, bound fraction determination; details: for Bound Fraction (%b) / Retention factor (k): values at 100% aqueous buffer, extrapolated from log k vs % ACN (11-16%), 67 mM potassium phosphate buffer pH 7.0, 25 °C; for experimental %b to HSA (controls): ACN in mobile phase ranging from 2% to 20%
human serum albumin (HSA), sequence (P02768 25-609): as above
Method: Binding affinity studies were conducted using a series of commercially available synthetic cannabinoids (Figure 1). […] The binding affinity of the synthetic cannabinoids to HSA was measured based on previously established methods using HPAC [15, 35, 36]. […] The analyses were performed using zonal elution in reversed-phase mode. A potassium phosphate buffer solution (67 mM, pH 7.0) was selected as the mobile phase due to HSA’s stability in phosphate buffers, and to closely mimic physiological conditions. Several studies describe the use of this buffer in protein binding studies mimicking the physiological conditions of human plasma.
ACN was chosen for the HSA studies, as it is one of the most commonly used organic modifiers in HSA columns. However, a low percentage of the organic modifier was necessary to prevent protein denaturation and prolong the column’s lifespan. Additionally, the presence of an organic modifier must be carefully considered, as it can alter the number of available binding sites by affecting the spatial conformation of the protein [41].
To calculate the bound fraction (%b) to HSA, different proportions of organic modifier were added to the mobile phase, ranging from 11% to 15%. In the Supplementary Materials (Figures S1–S6), representative chromatograms for each synthetic cannabinoid are shown, as examples. […] All analyses were performed in triplicate. […] To determine the %b values in a 100% aqueous buffer, an extrapolation was performed by plotting the logarithm of the retention factor (log k) against the percentage of the organic modifier (Figure S7, Supplementary Materials).
To determine the experimental %b values for these controls, different proportions of ACN were added to the mobile phase, ranging from 2% to 20%.
The sample injections (10 µL) were carried out in triplicate, and the flow rate was set to 0.5 mL/min.
as §4
Zonal analysis was the approach selected for the development of this work. The retention of the analyte is directly related to its interaction with the immobilized HSA, and can be described with Equation (1).(1) k=(KA1n1+…+KAnnn)mL/VM
The retention factor (k) is related to the number of binding sites and to their corresponding equilibrium constants (KA). VM represents the void volume and mL the total moles of the analyte binding sites. Equation (2) was used to calculate the retention factor [58].(2) k=tr−t0/t0
tr corresponds to the retention time of the analyte and t0 to the dead time. The t0 was taken from each individual run and was considered to be equal to the solvent front.
One application of zonal elution in HPAC is to measure the binding affinity of a drug to an immobilized protein.

HSA [2] = details: cited from earlier work
[3] = set-up: method as in PMID 26810883; details: ultrafiltration and LC-MS; cited from earlier work
HSA [4] = details: cited from earlier work; remark: listed apart in the source

Row | Structure (SMILES) | Interaction with (S)-ibuprofen on HSA (HSA site II) | Binding profile at HSA Site II (HSA site II) | Binding profile at HSA Site I (HSA site I) | Bound Fraction (%b) [1] [%] | Retention factor (k) [1] | also measured
1 | CC(C)[C@H](NC(=O)c1nn(CC2CCCCC2)c2ccccc12)C(N)=O | exhibits allosteric interactions with (S)-ibuprofen; also recorded: Allosterically interacts with (S)-ibuprofen | bind to both site I and site II of HSA; also recorded: Binding occurs (competition with L-tryptophan) | bind to both site I and site II of HSA; also recorded: Binding occurs (competition with warfarin) | 99.7 | 294.40 | –
2 | COC(=O)[C@@H](NC(=O)c1nn(CCCCCF)c2ccccc12)C(C)C [5F-AMB] | interact allosterically with (S)-ibuprofen; also recorded: Allosterically interacts with (S)-ibuprofen | do not compete with L-tryptophan; also recorded: Binding does not occur (no competition with L-tryptophan) | compete with warfarin for site I; also recorded: Binding occurs (competition with warfarin) | 98.9 | 87.30 | –
3 | CCCCCn1nc(C(=O)N[C@H](C(N)=O)C(C)C)c2ccccc21 [AB-PINACA] | interact allosterically with (S)-ibuprofen; also recorded: Allosterically interacts with (S)-ibuprofen | do not compete with L-tryptophan; also recorded: Binding does not occur (no competition with L-tryptophan) | compete with warfarin for site I; also recorded: Binding occurs (competition with warfarin) | 98.7 | 79.11 | –
4 | CC(C)(C)[C@H](NC(=O)c1nn(Cc2ccc(F)cc2)c2ccccc12)C(N)=O [ADB-FUBINACA] | Allosterically interacts with (S)-ibuprofen | neither site I nor site II is its primary binding site in HSA; also recorded: Binding does not occur (no competition with L-tryptophan) | neither site I nor site II is its primary binding site in HSA; also recorded: Binding does not occur (no competition with warfarin) | 99.8 | 619.87 | –
5 | COC(=O)[C@@H](NC(=O)c1nn(Cc2ccc(F)cc2)c2ccccc12)C(C)C [AMB-FUBINACA] | interact allosterically with (S)-ibuprofen; also recorded: Allosterically interacts with (S)-ibuprofen | do not compete with L-tryptophan; also recorded: Binding does not occur (no competition with L-tryptophan) | compete with warfarin for site I; also recorded: Binding occurs (competition with warfarin) | 99.7 | 326.38 | –
6 | O=C(c1cccc2ccccc12)c1nc2ccccc2n1CCCCCF [FUBIMINA] | – | – | – | 99.9 | 968.23 | –
7 | N[C@@H](Cc1c[nH]c2ccccc12)C(=O)O [L-Tryptophan, L-tryptophan] | – | – | – | – | – | Affinity constant of competitor for HSA (Lit.) (HSA [2]): KI L-Tryptophan (M^−1) (Lit. 4.4 × 10^4 M^−1) [55]
8 | Cc1c(C(=O)c2cccc3ccccc23)c2cccc3c2n1[C@H](CN1CCOCC1)CO3 [WIN 55,212-2] | – | – | – | – | – | plasma protein binding [3]: 95%
9 | CC(=O)CC(c1ccccc1)c1c(O)c2ccccc2oc1=O (centres unmarked) [Warfarin, warfarin] | – | – | – | – | – | Affinity constant of competitor for HSA (Lit.) (HSA [2]): KI Warfarin (M^−1) (Lit. 3.3 × 10^5 M^−1) [55]
10 | CN(C)CCCN1c2ccccc2Sc2ccc(Cl)cc21 [chlorpromazine, reference compound] | – | – | – | – | – | reported %b to HSA (HSA [4]): > 90%; experimental %b to HSA (controls) [1]: 82.12%
11 | COc1ccc2c(c1)c(CC(=O)O)c(C)n2C(=O)c1ccc(Cl)cc1 [indomethacin] | – | – | – | – | – | reported %b to HSA (HSA [4]): 97.8%
12 | Cc1ncc([N+](=O)[O-])n1CCO [metronidazole, reference compound] | – | – | – | – | – | reported %b to HSA (HSA [4]): 20%; experimental %b to HSA (controls) [1]: 19.78%
